Laboratory results as given in US20070010566A1, “Thiazolidinones without basic nitrogen, their production and use as pharmaceutical agents” (priority 2005, published 2007).

How the values were obtained:
[1] = target: T1, Recombinant human Plk-1 (6×His) (Homo sapiens, UniProt P53350); assay: PLK enzyme assay (33P-γ-ATP incorporation in biotinylated casein, SPA); assay type: biochemical; details: recombinant human Plk-1, casein substrate, 0.5 μmol of ATP, 90 minutes at room temperature; read-out: PLK-1 IC50 [nM] Inhibition
T1 construct: 6×His; made in house; host or cells: baculovirus-infected insect cells (Hi5)
Protocol: Recombinant human Plk-1 (6×His) was purified from baculovirus-infected insect cells (Hi5).
10 ng of (produced in a recombinant manner and purified) PLK enzyme is incubated for 90 minutes at room temperature with biotinylated casein and 33P-γ-ATP as a substrate in a volume of 15 μl in 384-well Greiner small-volume microtiter plates (final concentrations in the buffer: 660 ng/ml of PLK; 0.7 μmol of casein, 0.5 μmol of ATP incl. 400 nCi/ml of 33P-γ-ATP; 10 mmol of MgCl2, 1 mmol of MnCl2; 0.01% NP40; 1 mmol of DTT, protease inhibitors; 0.1 mmol of Na2VO3 in 50 mmol of HEPES, pH 7.5). To complete the reaction, 5 μl of stop solution (500 μmol of ATP; 500 mmol of EDTA; 1% Triton X100; 100 mg/ml of streptavidin-coated SPA beads in PBS) is added. After the microtiter plate is sealed by film, the beads are sedimented by centrifuging (10 minutes, 1500 rpm). The incorporation of 33P-γ-ATP in casein is intended as a measurement of enzyme activity by β-counting.
Test substances are used in various concentrations (0 μmol, as well as in the range of 0.01-30 μmol). The final concentration of the solvent dimethyl sulfoxide is 1.5% in all batches.

[2] = tested on: human MaTu breast tumour cells; assay: Proliferation assay (crystal violet staining); assay type: cell-based; details: 96 h, incubated for 4 days with test substance, read-out: Inhibition of the Tumour Cell Proliferation (MaTu) IC50
Protocol: Cultivated human MaTu breast tumour cells were flattened out at a density of 5000 cells/measuring point in a 96-well multititer plate in 200 μl of the corresponding growth medium. After 24 hours, the cells of one plate (zero-point plate) were colored with crystal violet (see below), while the medium of the other plates was replaced by fresh culture medium (200 μl), to which the test substances were added at various concentrations (0 μm, as well as in the range of 0.01-30 μm; the final concentration of the solvent dimethyl sulfoxide was 0.5%). The cells were incubated for 4 days in the presence of test substances. The cell proliferation was determined by coloring the cells with crystal violet: the cells were fixed by adding 20 μl/measuring point of an 11% glutaric aldehyde solution for 15 minutes at room temperature. After three washing cycles of the fixed cells with water, the plates were dried at room temperature. The cells were colored by adding 100 μl/measuring point of a 0.1% crystal violet solution (pH was set at 3 by adding acetic acid). […] The extinction was determined by photometry at a wavelength of 595 nm. The change of cell growth, in percent, was calculated by standardization of the measured values to the extinction values of the zero-point plate (=0%) and the extinction of the untreated (0 μm) cells (=100%).

T1 sequence (P53350 whole entry): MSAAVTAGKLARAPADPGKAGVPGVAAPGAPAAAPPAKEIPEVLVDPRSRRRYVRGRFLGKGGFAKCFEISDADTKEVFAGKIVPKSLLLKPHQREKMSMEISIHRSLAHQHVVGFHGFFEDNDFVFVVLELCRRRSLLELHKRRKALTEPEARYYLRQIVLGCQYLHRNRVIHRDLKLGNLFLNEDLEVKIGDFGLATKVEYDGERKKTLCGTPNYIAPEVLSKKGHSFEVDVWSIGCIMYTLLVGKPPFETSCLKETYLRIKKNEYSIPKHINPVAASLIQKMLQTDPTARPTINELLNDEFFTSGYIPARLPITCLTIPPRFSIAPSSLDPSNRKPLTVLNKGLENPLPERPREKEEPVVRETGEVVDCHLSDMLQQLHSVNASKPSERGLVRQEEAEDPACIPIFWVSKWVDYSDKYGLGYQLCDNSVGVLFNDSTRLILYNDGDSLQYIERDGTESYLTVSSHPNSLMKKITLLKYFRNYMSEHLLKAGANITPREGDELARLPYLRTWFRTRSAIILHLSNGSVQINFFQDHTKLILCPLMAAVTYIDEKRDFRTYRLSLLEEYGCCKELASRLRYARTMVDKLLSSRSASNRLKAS

IC50 [1] [nM]	IC50 [2] [nM]	SMILES
250	3600	CCn1c(=C(C#N)C(=O)NCC#N)sc(=Cc2nc[nH]c2C)c1=O [Example 8]
230	4200	CCn1c(=C(C#N)C(=O)NCC(F)(F)F)sc(=Cc2nc[nH]c2C)c1=O [Example 9]
